Reference: patent publication US5430058A, “Pharmaceutical compositions comprising hydroxamate derivatives for iron removal” (Yeda Research and Development Co. Ltd., priority 1993, dated 1995)
Converted amounts (≈) assume the structure as drawn. Read-outs that look alike come from different tables or passages of the source.

How the values were obtained:
[1] = Relative iron(III) binding efficiency by competition with EDTA; type: physicochemical; details: for rel. Fe binding (b): Table 2, relative to DFO = 1.16, 0.75 mM hydroxamate, 0.15 mM EDTA, 0.15 mM Fe3+ in aqueous methanol; for Pcoeff*Fe binding (a*b): product of relative partition coefficient and relative iron(III) binding; for Relative binding: Table 1, DFO = 100, competition with EDTA in aqueous MeOH
Protocol: c. The relative binding efficiencies of the reversed siderophores (0.75 mM reversed siderophore and 0.15 mM Fe^3+ in aqueous MeOH (MeOH-0.1N NaOAc) were incubated with EDTA (0.15 mM). After equilibration overnight, the fraction of siderophore- Fe^3+ complex present was determined at 430 nm.
(§1) The values for Pcoeff of free RSF ileun2 (the same as SF1ileu) and of leun2 and their respective iron(III) complexes were similar (not shown).

[2] = Partition between n-octanol and saline; type: physicochemical; details: for rel. Pcoeff (a): Table 2, relative to L-val-n1 = 1.0; for logP: Table 1, free ligand, read-out: Partition coefficient (converted)
Protocol: e. Partition coefficients were obtained by overnight equilibration of the free reversed siderophores between equal volumes of n-octanol and saline. The concentrations of the ligands in each phase were determined by adding excess iron(III) and measuring the ferric complexes at 430 nm.
as §1

[3] = tested on: trophozoites of P. falciparum; experiment: Antimalarial activity (Table 2), [3H]-hypoxanthine incorporation; type: cell-based, Plasmodium falciparum; details: Plasmodium falciparum
Protocol: g. Bioassay of iron carrier antimalarial activity. The antimalarial activity was assayed by adding the compounds from concentrated stock solutions (in DMSO) to microcultures (24 wells, Costar) containing infected red cells (2.5% hematocrit and 2% parasitemia). The cultures were usually synchronized (4-7 hrs. windows) by incubation in 300 mM Ala, 10 mM TRIS-Cl in conjunction with gelatin flotation and used either at the trophozoite (1-2% parasitemia) or at the ring stage (4-6% parasitemia) of the erythrocyctic cycle. After the indicated time of incubation with drug and either previous to or after washing 3 times with 100 volumes growth medium, the cells were supplemented with 6 μCi of either [^3 H]-hypoxanthine or [^3 H]-Ileu (Amersham, England) per well and parasite growth assessed after 24-48 hours by harvesting the labelled cells onto glass-fiber filters (Tamar, Inc. Jerusalem) and counting of the radioactivity. […]

normal red cells = experiment: Uptake of 59Fe-carrier complexes into normal red cells; type: cell-based, human
Protocol: (§2) k. Uptake of radioactive carrier-Fe complexes. DFO and the different SF derivatives were pre-complexed with iron by addition of concentrated stock solutions of 20 mg/ml carriers to ^59 FeCl3 (Amersham, England) in 0.5 ml of 150 mM NaCl, 10 mM Hepes at 3-5 molar excess of carrier for 1 hour at room temperature. To begin the flux, normal or parasitized red cells that had been washed 3 times in saline buffer and resuspended in the same buffer supplemented with 5% bovine serum albumin (BSA), 2.5 mM citrate, 2 mg/ml glucose were added to radioactive ^59 Fe-complexes at a final suspension of 20% hematocrit. After incubation at 37° C., 75 μl suspension was removed in duplicate aliquots for each time point, placed in plastic 15 ml test tube (Starstedt) and centrifuged 1 minute at 2,500 g. The supernatant was removed and the pellet immediately placed on ice. After all sampling was completed the pellets were washed twice in 15 ml of ice cold buffer containing 50 mM EDTA and lysed in distilled water. Radioactivity (Gamma emission, 700-1300 Kev) was counted and the cell number for each sample determined from hemoglobin absorption of the lysate at 410 nm.
Due to the fact that RSF's have markedly greater lipophilicity than DFO, they were expected to faster penetrate and therefore more effectively chelate intracellular iron after short exposure times. Penetration of RSF's into normal and infected red cells was estimated by monitoring uptake of the RSF's-^59 Fe(III) complexes into infected and uninfected cells and compared to DFO. In order to confirm actual uptake of Fe-RSF ileun2 rather than adsorption to the outer membrane, cells were thoroughly washed and lysates were subjected to 80,000g×20 min centrifugation. More than 90% of the total counts were found in the cytosol fraction (results not shown).
FIGS. 8a and 8b show uptake of Fe^59 -carrier complexes into normal and infected red cells. Uptake of ^59 -Fe-RSF (FIG. 8a) and ^59 Fe-DFO (FIG. 8b) into normal (open symbols) and infected (closed symbols) red cells (60% parasitemia, >90% trophozoites). The carriers were pre-complexed to ^59 FeCl3 at 4:1 ration in DMSO with 5 μM external FeCl3 (from methanolic stock solutions). The radioactive complexes were then added to 20% hematocrit cell suspensions and flux was measured. Specific activity was 485000 cpm/nmole and 369000 cpm/nmole for the RSF and DFO uptake experiments, respectively. Cell number was determined from hemoglobin absorption of lysate at 410 nm.

infected red cells = experiment: Uptake of 59Fe-carrier complexes into infected red cells; type: cell-based, human erythrocytes infected with P. falciparum
Protocol: as §2
Penetration of RSF's into normal and infected red cells was estimated by monitoring uptake of the RSF's-^59 Fe(III) complexes into infected and uninfected cells and compared to DFO. In order to confirm actual uptake of Fe-RSF ileun2 rather than adsorption to the outer membrane, cells were thoroughly washed and lysates were subjected to 80,000g×20 min centrifugation.
The carriers were pre-complexed to ^59 FeCl3 at 4:1 ration in DMSO with 5 μM external FeCl3 (from methanolic stock solutions). The radioactive complexes were then added to 20% hematocrit cell suspensions and flux was measured. […] Cell number was determined from hemoglobin absorption of lysate at 410 nm.

[4] = Extraction of iron from aqueous FeCl3/citrate into chloroform; type: physicochemical; details: 0.3 mM in chloroform vs 0.3 mM FeCl3, 0.3 mM citric acid, 40 mM TRIS, pH 6.9, overnight
Protocol: d. Extractions were performed by overnight equilibration of 0.3 mM chloroform solutions of reversed siderophore with aqueous solutions of 0.3 mM FeCl3, 0.3 mM citric acid, 40 mM TRIS, pH 6.9. The amount of iron taken up into the organic phase was determined by the absorption of the iron+complex at 430 nm. No iron uptake into chloroform solutions devoid of RSF was observed by ion chromatography.

[5] = tested on: trophozoites of P. falciparum, strain ItG2G1; experiment: Antimalarial activity (Table 1), [3H]hypoxanthine incorporation; type: cell-based; details: Plasmodium falciparum, 48 h
Protocol: f. Parasite cultures. The P. falciparum strains used in the experiments: ItG2G1 (Brazil, provided by Dr. L. H. Miller), D6 (W. African, provided by Dr. A. J. M. Oduola) FCR-3 (Gambian, provided by Dr. J. B. Jensen) and W2 (Indochina, provided by Dr. A. J. M. Oduola), were grown in culture flasks of human erythrocytes by a modified version of Trager and Jensen's method as described by Silfen et al. ((1988) Biochem. Pharmacol. 37: 4269-4276)).
g. Bioassay of iron carrier antimalarial activity. The antimalarial activity was assayed by adding the compounds from concentrated stock solutions (in DMSO) to microcultures (24 wells, Costar) containing infected red cells (2.5% hematocrit and 2% parasitemia). The cultures were usually synchronized (4-7 hrs. windows) by incubation in 300 mM Ala, 10 mM TRIS-Cl in conjunction with gelatin flotation and used either at the trophozoite (1-2% parasitemia) or at the ring stage (4-6% parasitemia) of the erythrocyctic cycle. After the indicated time of incubation with drug and either previous to or after washing 3 times with 100 volumes growth medium, the cells were supplemented with 6 μCi of either [^3 H]-hypoxanthine or [^3 H]-Ileu (Amersham, England) per well and parasite growth assessed after 24-48 hours by harvesting the labelled cells onto glass-fiber filters (Tamar, Inc. Jerusalem) and counting of the radioactivity.
The antimalarial activity of the different chelators was initially evaluated on cultures of trophozoites which were exposed for 24 hours to different concentrations of chelators. Following that period, [^3 H]-hypoxanthine or [^3 H]-Ileu were added and 24 hours later the parasitemia and incorporation of label into macromolecular material was determined.

[6] = amino acid side chain, Tanford/Segret's scale as given by Eisenberg 1984; cited from earlier work
[7] = trophozoites, 40 hours exposure, mean of 3-4 experiments, read-out: IC50 (c)

Row | IC50 [3, 7] [µM] | Uptake kinetics compared with RSF-ileun2 (normal red cells) | Uptake kinetics compared with RSF-ileun2 (infected red cells) | rel. Fe binding (b) ([1]; listed as L-val n1) | Fe-binding affinity relative to DFO ([1]; percent that of DFO) [%] | Pcoeff*Fe binding (a*b) ([1]; listed as L-val of n1 subfamily) | IC50 ([3]; discussion of Table 2, unit inferred, read-out: IC50) [µM] | Compound | rel. Fe binding (b) [1] | Pcoeff*Fe binding (a*b) [1] | rel. Pcoeff (a) [2] | Relative binding [1] | Extraction efficiency [4] | logP [2] | IC50 [5] [µg/mL] | IC50 ([3]; 40 h, read-out: IC50 (c)) [µM] | Hydrophobicity [6] | Pcoeff of free ligand vs iron(III) complex ([2]; not shown)
1 | 5 ± 2 | Identical uptake kinetics | Identical uptake kinetics | – | – | – | – | CCC(COCC(=O)N[C@@H](CC(C)C)C(=O)N(C)O)(COCC(=O)N[C@@H](CC(C)C)C(=O)N(C)O)COCC(=O)N[C@@H](CC(C)C)C(=O)N(C)O [(L--leu) n=1] | 0.23 | 3.86 | 17.0 | – | – | – | – | – | – | –
2 | 6 ± 2 | – | – | – | – | – | – | CCC(COCCC(=O)N[C@H](C(=O)N(C)O)C(C)C)(COCCC(=O)N[C@H](C(=O)N(C)O)C(C)C)COCCC(=O)N[C@H](C(=O)N(C)O)C(C)C [(L--val) n=2] | 1.31 | 2.8 | 2.1 | – | – | – | – | – | – | –
3 | – | – | – | – | – | – | – | CCC(COCCC(=O)N[C@H](C)C(=O)N(C)O)(COCCC(=O)N[C@H](C)C(=O)N(C)O)COCCC(=O)N[C@H](C)C(=O)N(C)O [SF1--D--ala] | 1.25 | 0.37 | 0.3 | 108 | 88 | -0.276 | 45 (≈ 69.2 µM) | 70 ± 13 | 1.0 | –
4 | – | – | – | – | – | – | – | CCC(COCCC(=O)N[C@@H](C)C(=O)N(C)O)(COCCC(=O)N[C@@H](C)C(=O)N(C)O)COCCC(=O)N[C@@H](C)C(=O)N(C)O [SF1--L--ala] | 1.25 | 0.37 | 0.3 | 108 | 88 | -0.276 | 40 (≈ 61.5 µM) | 62 ± 10 | 1.0 | –
5 | 3 ± 1 | – | – | – | – | – | – | CC[C@H](C)[C@H](NC(=O)COCC(CC)(COCC(=O)N[C@H](C(=O)N(C)O)[C@@H](C)CC)COCC(=O)N[C@H](C(=O)N(C)O)[C@@H](C)CC)C(=O)N(C)O [(L--ileu) n=1] | 1.0 | 9.3 | 9.0 | – | – | – | – | – | – | –
6 | 4 ± 1 | – | – | 1 | 86 | 1 | 4 | CCC(COCC(=O)N[C@H](C(=O)N(C)O)C(C)C)(COCC(=O)N[C@H](C(=O)N(C)O)C(C)C)COCC(=O)N[C@H](C(=O)N(C)O)C(C)C [(L--val) n=1] | 1.0 | 1.0 | 1.0 | – | – | – | – | – | – | –
7 | – | – | – | – | – | – | – | CCC(COCCC(=O)N1CCC[C@H]1C(=O)N(C)O)(COCCC(=O)N1CCC[C@H]1C(=O)N(C)O)COCCC(=O)N1CCC[C@H]1C(=O)N(C)O [SFI--pro] | 0.16 | 0.06 | 0.4 | 14 | 38 | -0.187 | > 100 | > 100 | 1.5 | –
8 | – | – | – | – | – | – | – | CC[C@@H](C)[C@@H](NC(=O)CCOCC(CC)(COCCC(=O)N[C@@H](C(=O)N(C)O)[C@H](C)CC)COCCC(=O)N[C@@H](C(=O)N(C)O)[C@H](C)CC)C(=O)N(C)O [(D--ileu) n=2] | 0.298 | 2.4 | 8.2 | – | – | – | – | 9 ± 3 | – | –
9 | – | – | – | – | – | – | – | CCC(COCCC(=O)N[C@@H](CC(C)C)C(=O)N(C)O)(COCCC(=O)N[C@@H](CC(C)C)C(=O)N(C)O)COCCC(=O)N[C@@H](CC(C)C)C(=O)N(C)O [SF1--L--leu] | 0.12 | 0.9 | 7.4 | 10 | 35 | 1.1 | 17 (≈ 21.9 µM) | 22 ± 4 | 3.5 | similar
